According to US4044134A, “Fused pyrimidin-4(3H)-ones as antiallergy agents” (Pfizer Inc., priority 1976, dated 1977):
Where two headings read alike, the source gives them in different places.

Tested on: passive cutaneous anaphylaxis (PCA) reaction
Test: passive cutaneous anaphylaxis (PCA) test, i.v. or oral administration
Assay type: in vivo, male Charles River Wistar rats
Conditions: Rattus norvegicus, read-out: degree (%) of protection, PCA test
Method: In the PCA test, normal animals are injected intradermally (i.d.) with antibodies contained in serum obtained from actively sensitized animals. The animals are then challenged intravenously with antigen mixed with a dye such as Evans' Blue. The increased capillary-permeability caused by the antigen-antibody reaction causes the dye to leak from the site of the antibody injection. The test animals are then asphyxiated and the intensity of the reaction determined by measuring the diameter and intensity of the blue coloration on the inner surface of the animals skin. […] The ability of agents to interfere with PCA reactions is measured in male Charles River Wistar rats, 170-210 g. […] Hyperimmune antisera to hen egg albumin is prepared according to Orange, et al., J. Exptl. […] Forty-eight hours prior to antigen challenge the reaginic antisera is injected intradermally (i.d.) into the shaved skin of a normal rat's back; 5 hours before challenge the hyperimmune antisera is similarly injected; 5 hours later, at a third site, 60 mcg. histamine dihydrochloride is injected i.d. as a check for antihistaminic and unspecific types of blockage; the compounds of the instant invention or saline are then administered i.v. and immediately followed by 2.5 mg. Evan's blue dye and 5 mg. egg albumin in saline. In the case of oral administration Evan's blue dye and egg albumen are given five minutes after administration of the drug. Thirty minutes later the animals are asphyxiated using chloroform and the skin of the back removed and reversed for observation. A score is assigned each injection site equal to the product of the diameter of the site in mm. and a grade of 0.1, 0.5, 1, 2, 3 or 4 proportional to intensity of dye coloration. The scores for a given injection site are summed for each group of 8 animals and compared to the saline treated controls. The difference is expressed as percent blockade due to the compound employed. […] Disodium cromoglycate, a commerial antiallergy agent, is included for comparison. [drawing 3]

| SMILES | inhibition in vivo at 30 mg/kg (Oral) | inhibition in vivo at 3 mg/kg (iv, I.V.) | inhibition in vivo at 0.3 mg/kg (iv, I.V.) | inhibition in vivo at 0.03 mg/kg (iv, I.V.) | inhibition in vivo at 10 mg/kg (Oral) | other results |
| --- | --- | --- | --- | --- | --- | --- |
| CCOC(=O)c1nc2nc3cc4c(cc3cc2c(=O)[nH]1)OCO4 [COOC2 H5/H/H/--O--CH2 --O--, Ethyl 7,8-Methylenedioxypyrimido[4,5-b]Quinolin-4(3H)-One-2-Carboxylate] | 0% | – | – | – | – | inhibition in vivo at 0.1 mg/kg (iv, I.V.): 0%; inhibition in vivo at 1 mg/kg (iv, I.V.): 70% |
| CCc1nc2nc3cc(OC)c(OC)cc3cc2c(=O)[nH]1 [C2 H5/H/H/OCH3/OCH3/H, 2-Ethyl-7,8-Dimethoxypyrimidin[4,5-b]quinolin-4(SH)-One] | – | 56% | – | – | – | inhibition in vivo at 60 mg/kg (Oral): 0% |
| CCOC(=O)c1nc2nc3cc(O)c(OC)cc3cc2c(=O)[nH]1 [COOC2 H5/H/H/OCH3/OH/H, Ethyl 7-Methoxy-8-Hydroxypyrimido[4,5-b]Quinolin-4(3H)One-2-Carboxylate] | – | 100% | 100% | – | – | inhibition in vivo at 0.003 mg/kg (iv, I.V.): 0% |
| CCCCOC(=O)c1nc2nc3cc(OC)c(OCc4ccccc4)cc3cc2c(=O)[nH]1 [COO-(n-C4 H9)/H/H/OC7 H7/OCH3/H] | – | 100% | – | 57% | 12% | – |
| CCOC(=O)c1nc2nc3c(OC)c(OC)ccc3cc2c(=O)[nH]1 [COOC2 H5/H/H/H/OCH3/OCH3, Ethyl 8,9-Dimethoxypyrimido[4,5-b]-Quinolin-4(3H)-One-2-Carboxylate] | – | 100% | 39% | – | 0% | inhibition in vivo at 60 mg/kg (Oral): 26% |
| CCOC(=O)c1nc2nc3ccc(OC)cc3cc2c(=O)[nH]1 [COOC2 H5/H/H/OCH3/H/H, Ethyl 7-Methoxypyrimido[4,5-b]-Quinolin-4(3H)-One-2-Carboxylate] | – | 100% | 87% | – | 43% | inhibition in vivo at 0.1 mg/kg (iv, I.V.): 68%; inhibition in vivo at 3 mg/kg (Oral): 32% |
| CCOC(=O)c1nc2nc3cc(OCC)c(OC)cc3cc2c(=O)[nH]1 [COOC2 H5/H/H/OCH3/OC2 H5/H, Ethyl 7-methoxy-8-ethoxypyrimido[4,5-b]quinoline-4(3H)-one-2-carboxylate] | 80% | 97% | – | 85% | 73% | inhibition in vivo at 0.003 mg/kg (iv, I.V.): 66%; inhibition in vivo at 0.01 mg/kg (iv, I.V.): 57%; inhibition in vivo at 0.1 mg/kg (iv, I.V.): 94%; inhibition in vivo at 0.3 mg/kg (Oral): 31%; inhibition in vivo at 1 mg/kg (Oral): 44%; inhibition in vivo at 3 mg/kg (Oral): 52% |
| CCCCOC(=O)c1nc2nc3ccccc3cc2c(=O)[nH]1 [COO(n-C4 H9)/H/H/H/H/H, n-Butylpyrimido[4,5-b]Quinolin-4(3H)-One-2-carboxylate] | 50% | – | – | 6% | – | inhibition in vivo at 1 mg/kg (iv, I.V.): 90% |
| CCOC(=O)c1nc2nc3c(OC)c(OC)c(OC)cc3cc2c(=O)[nH]1 [COOC2 H5/H/H/OCH3/OCH3/OCH3] | – | 88% | 23% | 33% | 0% | – |
| CCOC(=O)c1nc2nc3cccc(Cl)c3cc2c(=O)[nH]1 [COOC2 H5/H/Cl/H/H/H, Ethyl 6-Chloropyrimido[4,5-b]Quinolin-4(3H)-One-2-Carboxylate] | 57% | – | – | 11% | – | inhibition in vivo at 1 mg/kg (iv, I.V.): 96% |
| CCOC(=O)CNC(=O)c1nc2nc3cc(OC)c(OC)cc3cc2c(=O)[nH]1 [N-carbethoxymethyl 7,8-dimethoxypyrimido-[4,5-b]quinolin-4(3H)-one-2-carboxamide] | – | 32% | – | – | – | inhibition in vivo at 30 mg/kg (iv, I.V.): 96% |
| NC(=O)c1nc2nc3ccccc3cc2c(=O)[nH]1 [CONH2/H/H/H/H/H, Pyrimido[4,5-b]Quinolin-4(3H)-One-2-Carboxamide] | – | 98% | – | – | – | inhibition in vivo at 60 mg/kg (Oral): 23% |
| CCOC(=O)c1nc2nc3cc(F)ccc3cc2c(=O)[nH]1 [COOC2 H5/H/H/H/F/H, Ethyl 8-fluoropyrimido[4,5-b]quinolin-4(3H)-one-2-carboxylate] | – | – | – | – | – | inhibition in vivo at 0.1 mg/kg (iv, I.V.): 2% |
| COc1cc2cc3c(=O)[nH]c(C(N)=O)nc3nc2cc1OC [CONH2/H/H/OCH3/OCH3/H, 7,8-Dimethoxypyrimido[4,5-b]Quinolin-4(3H)-One-2-Carboxamide] | 4% | 87% | – | – | – | – |
| CCOC(=O)c1nc2nc3ccc([S+](C)[O-])cc3cc2c(=O)[nH]1 (stereo not shown) [COOC2 H5/H/H/SOCH3/H/H, Ethyl 7-Methylsulfinylpyrimido[4,5-b]quinoline-4(3H)-One-2-Carboxylate] | 12% | 100% | 58% | 0% | – | – |
| CCOC(=O)c1nc2nc3cc(OC)ccc3cc2c(=O)[nH]1 [COOC2 H5/H/H/H/OCH3/H] | – | 90% | 20% | 0% | 43% | – |
| CCOC(=O)c1nc2nc3ccc(SC)cc3cc2c(=O)[nH]1 [COOC2 H5/H/H/SCH3/H/H, Ethyl 7-Methylthiopyrimido[4,5-b]quinolin-4(3H)-One-2-Carboxylate] | 100% | 88% | 91% | 8% | 66% | inhibition in vivo at 1 mg/kg (Oral): 0%; inhibition in vivo at 3 mg/kg (Oral): 21% |
| CCOC(=O)c1nc2nc3cc(OCC)c(OCC)cc3cc2c(=O)[nH]1 [COOC2 H5/H/H/OC2 H5/OC2 H5/H] | – | 100% | – | 60% | 81% | inhibition in vivo at 0.003 mg/kg (iv, I.V.): 21%; inhibition in vivo at 0.01 mg/kg (iv, I.V.): 43%; inhibition in vivo at 0.1 mg/kg (iv, I.V.): 90%; inhibition in vivo at 0.3 mg/kg (Oral): 42%; inhibition in vivo at 1 mg/kg (Oral): 40%; inhibition in vivo at 3 mg/kg (Oral): 64% |
| CCCCOc1cc2nc3nc(C(=O)OCC)[nH]c(=O)c3cc2cc1OCC [COOC2 H5/H/H/OC2 H5/O-(n-C4 H9)/H] | – | 90% | 44% | 0% | 67% | inhibition in vivo at 0.1 mg/kg (iv, I.V.): 28%; inhibition in vivo at 1 mg/kg (iv, I.V.): 95%; inhibition in vivo at 1 mg/kg (Oral): 3%; inhibition in vivo at 3 mg/kg (Oral): 43% |
| O=c1[nH]cnc2nc3ccccc3cc12 [pyrimido[4,5-b]quinolin-4(3H)-one, reference compound] | – | 33% | – | – | – | – |
| CCOC(=O)c1nc2ncccc2c(=O)[nH]1 [OC2 H5/H/H/H (Formula III), Ethyl Pyrido[2,3-d]Pyrimidin-4(3H)-One-2-Carboxylate] | – | – | – | – | – | inhibition in vivo at 10 mg/kg (iv, I.V.): 95%; inhibition in vivo at 100 mg/kg (Oral): 0% |
| COc1cc2cc3c(=O)[nH]c(C(=O)NO)nc3nc2cc1OC [CONHOH/H/H/OCH3/OCH3/H, 7,8-Dimethoxypyrimido-[4,5-b]-Quinolin-4(3H)-One-2-Hydroxamic Acid] | – | 92% | – | – | – | inhibition in vivo at 60 mg/kg (Oral): 3% |
| CCOC(=O)c1nc2cc3ccccc3cc2c(=O)[nH]1 [COOC2 H5/H/H/H/H (Formula II), ethyl Benzo[g]Quinazolin-4(3H)-One-2-Carboxylate] | – | – | – | – | – | inhibition in vivo at 10 mg/kg (iv, I.V.): 27%; inhibition in vivo at 100 mg/kg (Oral): 38% |
| CCCCOC(=O)c1nc2nc3cc(OC)c(OC)cc3cc2c(=O)[nH]1 [COO(n-C4 H9)/H/H/OCH3/OCH3/H] | 81% | 90% | 94% | 100% | – | inhibition in vivo at 0.003 mg/kg (iv, I.V.): 64% |
